This is an account of results in US20250250292A1, “DELIVERY SYSTEM TO TARGET GRAM-NEGATIVE BACTERIA” (priority 2022, published 2025).

Like-named read-outs stand apart in the source and are kept apart here. Where only a bound is given, the exact number is not on record here.

One series has as its system MRC5 fibroblast cells. The series is described as follows: Cel Titer Glo cytotoxicity in MRC5 cells. The series is classed as cell-based. How it is done:
In order to facilitate development of the TPP containing antibiotics, a series of TPP linkers were prepared and tested for their toxicity in MRC5 cells. This library of linkers are shown below: The toxicity of these linkers in MRC5 cells after a 72 hour incubation.

The test system of series [1] is Escherichia coli (BL21(DE3)). The series is described as follows: Resazurin blue (alamarBlue) bacterial cell viability assay, gram-negative model. The series is classed as cell-based. Conditions: E Coli BL21 (DE3). How it is done:
(§1) To compare the efficacy of pleuromutilin and the pleuromulin-TPP^+ ester pro-drug (AP-8-159B) gram-negative and gram-positive pathogen model system were used. Thus, Escherichia coli (BL21(DE3) from New England Biolabs) was used as a model strain for gram-negative bacteria and clinical isolates of Staphylococcus aureus were used as the model system for gram-positive bacteria (NR-49120, NR-46413 obtained from BEI Resources). All strains were cultured at 37° C. overnight in Luria Bertani (LB) (BD 244610). For testing the drug sensitivity, bacteria were grown in RPMI medium containing 10% fetal bovine serum or human serum.
A resazurin blue assay (alamarBlue®) (Toté et al., 2009; Costa et al., 2021; Wannigama et al., 2019; Travnickova et al., 2019) was used to evaluate bacterial cell viability. Resazurin (7-hydroxy-10-oxidophenoxazin-10-ium-3-one, sodium) is a blue fluorogenic dye used as a redox indicator in cell viability and proliferation assays for bacteria, yeast, or mammalian cells. The resazurin assay protocol is based on the reduction of oxidized non-fluorescent blue resazurin to a red fluorescent dye (resorufin), where NADPH dehydrogenase, without being bound by theory, is probably responsible for the transference of electrons from NADPH+H^+ to resazurin (Costa et al., 2021). The amount of resorufin produced is directly proportional to the number of living cells. This simple fluorometric-based assay rapidly quantifies metabolically active bacterial cells. Two controls were added to the plate to confirm the correct response from the resazurin. The positive control used evaluated media alone without bacterial culture to confirm there was no change from blue to red. The negative control evaluated the bacteria culture alone without added compound to provide a 100% growth control (red). Thus, resazurin sodium salt (Sigma R7017) was added to pleuromutilin or pleuromutilin-TPP+ prodrug treated bacterial samples at a final concentration of 0.02% and incubated for 8 hours at 37° C. Changes in fluorescence were measured on the Biotek Synergy 2 plate reader after an 8-hour incubation at 37° C. using an excitation filter range of 530-570 nm and an emission filter range of 590-620 nm. An increase in fluorescence intensity corresponded to bacterial growth and was quantified by comparison with untreated bacterial control samples. The ratio of (TThreshold (untreated)/TThreshold (prodrug-treated)) (where T=time) was used to quantify the change in bacterial growth. To minimize inter-experimental variations, TThreshold values were corrected by subtracting untreated control cultures to reach minimum detectable fluorescence. At the end of the experiment, wells were visualized for changes in color from blue (inviable bacteria) to red (viable bacteria) and a picture was taken.
For orientation: Resazurin is reduced to fluorescent resorufin, in cell work by metabolically active cells.

The test system of series [2] is clinical isolates of Staphylococcus aureus (NR-49120, NR-46413). The experiment in a line: Resazurin blue (alamarBlue) bacterial cell viability assay, gram-positive model. Conditions: clinical strains of Staphylococcus aureus. The series is classed as cell-based. The protocol: as §1
A resazurin blue assay (alamarBlue®) (Toté et al., 2009; Costa et al., 2021; Wannigama et al., 2019; Travnickova et al., 2019) was used to evaluate bacterial cell viability. Resazurin (7-hydroxy-10-oxidophenoxazin-10-ium-3-one, sodium) is a blue fluorogenic dye used as a redox indicator in cell viability and proliferation assays for bacteria, yeast, or mammalian cells. […] This simple fluorometric-based assay rapidly quantifies metabolically active bacterial cells. […] The positive control used evaluated media alone without bacterial culture to confirm there was no change from blue to red. The negative control evaluated the bacteria culture alone without added compound to provide a 100% growth control (red). […] Changes in fluorescence were measured on the Biotek Synergy 2 plate reader after an 8-hour incubation at 37° C. using an excitation filter range of 530-570 nm and an emission filter range of 590-620 nm. An increase in fluorescence intensity corresponded to bacterial growth and was quantified by comparison with untreated bacterial control samples. The ratio of (TThreshold (untreated)/TThreshold (prodrug-treated)) (where T=time) was used to quantify the change in bacterial growth. To minimize inter-experimental variations, TThreshold values were corrected by subtracting untreated control cultures to reach minimum detectable fluorescence. […]

A further series relates to Streptococcus agalactiae. The experiment in a line: Antibacterial in vitro activity (MIC). It is filed as cell-based. Conditions: isolate B0790, Clinical isolate. The protocol:
(§2) These compounds were tested in an E. coli and Klebsiella strain to determine the change in OD600 as a function of concentration (FIG. 5, E. coli; FIG. 6, Klebsiella). The antibacterial activity of the compounds was further analyzed and activity was determine a variety of different bacterial strains.

For another series, the system named is Staphylococcus aureus. The experiment in a line: Antibacterial in vitro activity (MIC). It is filed as cell-based. How it is done:
as §2

The subject of the next series is Salmonella typhimurium. The series is described as follows: Antibacterial in vitro activity (MIC). The settings on record: Salmonella enterica, ATCC 13311 / TYPHIMURIUM; isolate D0109, ATCC13311. It is filed as cell-based. The protocol: as §2
The next series concerns Streptococcus pneumoniae. The experiment in a line: Antibacterial in vitro activity (MIC). The series is classed as cell-based. How it is done: as §2
For another series, the system named is Escherichia coli. The series is described as follows: Antibacterial in vitro activity (MIC). It is filed as cell-based. How it is done:
as §2

The next series concerns Enterobacter cloacae. The experiment in a line: Antibacterial in vitro activity (MIC). The series is classed as cell-based. How it is done:
as §2

In a further series the test system is Haemophilus influenzae. The experiment in a line: Antibacterial in vitro activity (MIC). It is filed as cell-based. How it is done:
as §2

In the next series the test system is Streptococcus pyogenes. The experiment in a line: Antibacterial in vitro activity (MIC). The series is classed as cell-based. The settings on record: isolate B0780, Clinical isolate. How it is done:
as §2

Another series deals with Proteus mirabilis. The experiment in a line: Antibacterial in vitro activity (MIC). It is filed as cell-based. The protocol:
as §2

A further series relates to Citrobacter freundii. The series is described as follows: Antibacterial in vitro activity (MIC). It is filed as cell-based. The protocol:
as §2

The test system of series [3] is Acinetobacter baumannii. The experiment in a line: Antibacterial in vitro activity (MIC). The series is classed as cell-based. How it is done:
as §2

Series [4] concerns Pseudomonas aeruginosa. The series is described as follows: Antibacterial in vitro activity (MIC). The series is classed as cell-based. How it is done: as §2
The next series concerns Klebsiella pneumoniae. The series is described as follows: Antibacterial in vitro activity (MIC). The series is classed as cell-based. The protocol:
as §2

Another series concerns Enterococcus faecium. The series is described as follows: Antibacterial in vitro activity (MIC). It is filed as cell-based. Conditions: isolate D0459, Clinical isolate. The protocol: as §2
For a further series, the system named is E. faecalis. The settings on record: McCarthy, 2021; cited from earlier work.
For series [5], the system named is Acinetobacter baumannii. Conditions: McCarthy, 2021; cited from earlier work.
The test system of series [6] is Pseudomonas aeruginosa. Conditions: McCarthy, 2021; cited from earlier work.

What is called IC50 is the concentration at which inhibition is half-maximal. Higher therefore signals weaker potency in that assay. For the molecule `C=C[C@]1(C)C[C@@H](OC(=O)COC(=O)c2ccc(C[P+](c3ccccc3)(c3ccccc3)c3ccccc3)cc2)[C@]2(C)CC[C@@H](C)[C@@]3(CCC(=O)[C@@H]23)[C@@H](C)[C@@H]1O` [AP-8-159B], in the series on MRC5 fibroblast cells (Homo sapiens, Table 2, cytotoxicity in MRC5 fibroblast cells), the IC50 is 4.67 µM. In addition, the “cytotoxicity” value with MRC5 fibroblast cells (normal MRC5 fibroblast cell lines) is given as “weak cytoxcity”. Moreover, the cytotoxicity potency in [1] was found to be 1.65 µg/mL. Moreover, the “cytotoxic effect” value in [2] is “potent cytotoxic agents”. Moreover, the MIC against Streptococcus agalactiae was 0.06 µg/mL; in the series on Staphylococcus aureus (ATCC49951, isolate B0009, ATCC 49951), no more than 0.12 µg/mL; with Staphylococcus aureus (isolate B0029, Clinical isolate), 0.5 µg/mL; in the series on Staphylococcus aureus (isolate B1325, Clinical isolates), 0.5 µg/mL; against Salmonella typhimurium it was 16 µg/mL; with Streptococcus pneumoniae (isolate B0078, Clinical isolate) it was 0.5 µg/mL. The MIC with Streptococcus pneumoniae (isolate B0415, Clinical isolate) was no more than 0.12 µg/mL; in the series with Escherichia coli (ATCC25922, isolate B0001, ATCC 25922, read-out: MIC) it was 8 µg/mL; with Escherichia coli (isolate B0158, AcrAB-TolC efflux pump WT, read-out: MIC), 32 µg/mL; against Escherichia coli (isolate B0159, Efflux pump deficient (ΔtolC)), 0.5 µg/mL; with Escherichia coli (isolate B0429, Efflux pump deficient (ΔacrAB)), 1 µg/mL; with Escherichia coli (isolate B1098, Clinical isolate, read-out: MIC), 16 µg/mL. Besides, the MIC was 16 µg/mL in the series with Escherichia coli (isolate D0120, Clinical isolate, read-out: MIC); greater than 128 µg/mL against Enterobacter cloacae (isolate D1089, Clinical isolate); greater than 128 µg/mL in the series on Enterobacter cloacae (isolate D1090, Clinical isolate); 1 µg/mL against Haemophilus influenzae (ATCC49247, isolate B0035, ATCC 49247); 0.25 µg/mL against Haemophilus influenzae (isolate B0126, Clinical isolate); 0.12 µg/mL in the series with Streptococcus pyogenes. Also, the MIC in the series with Proteus mirabilis (Proteus mirabilis, isolate D1301, Clinical isolate, read-out: MIC) was found to be 32 µg/mL; in the series on Proteus mirabilis (isolate D1300, Clinical isolate), 32 µg/mL; against Citrobacter freundii (isolate B0271, Clinical isolate), 64 µg/mL; against Citrobacter freundii (isolate B0286, AKH Vienna) it was 64 µg/mL; with Acinetobacter baumannii [3] (ATCC15473, isolate B0473, ATCC 15473), 64 µg/mL; in the series with Acinetobacter baumannii [3] (isolate B1062, Clinical isolate), 128 µg/mL. Also, the MIC in the series on Pseudomonas aeruginosa [4] (ATCC27853, isolate B0015, ATCC 27853) is 8 µg/mL; in the series on Pseudomonas aeruginosa [4] (ATCC29511, isolate B0016, ATCC 29511) it was 16 µg/mL; in the series on Pseudomonas aeruginosa [4] (isolate B0367, Clinical isolate), 4 µg/mL; against Klebsiella pneumoniae (ATCC11228, isolate B0032, ATCC 11228), greater than 128 µg/mL; in the series on Klebsiella pneumoniae (ATCC29519, isolate D0033, ATCC 29519), 128 µg/mL; against Klebsiella pneumoniae (ATCC43816, isolate B0305, ATCC 43816), 128 µg/mL. In the series with Enterococcus faecium, this molecule displayed an MIC of 0.5 µg/mL.

With `C=C[C@]1(C)C[C@@H](OC(=O)CS[C@@H]2CC[C@@H](N)C[C@H]2O)[C@]2(C)[C@H](C)CC[C@]3(CCC(=O)[C@H]32)[C@@H](C)[C@@H]1O` [Lefamulin], the “antibacterial activity” value in the series on E. faecalis, in the series with Acinetobacter baumannii [5] and with Pseudomonas aeruginosa [6] was “lacks activity” throughout.
